Key:
Type in all cases: in vivo, mice
[1] = tested on: BoM-1833 cells; assay: Bone metastasis assay, intracardiac injection of TGFβ-pretreated BoM-1833 cells; conditions: BoM-1833 cells pre-incubated with TGFβ
Experimental: (§1) FIGS. 3A-D. (A) LM2 cells and a clinically-derived pleural effusion sample (CN34.2A) were pretreated with TGFβ for 6 h. LM2 (2×10^5) and CN34.2A (4×10^5) cells were injected into the lateral tail vein and lung colonization was analyzed by in vivo bioluminescence imaging. (B) Bar graph represents 24 h time point measurements of the normalized photon flux from animals injected with either LM2 or CN34.2A cells. (C) Bone metastasis assays were performed by intracardiac injection of LM2 or BoM-1833 cells (3×10^4). Samples were pretreated with […] of TGFβ for 6 h and compared to an untreated control. (D) Bar graphs represent seven-day time point analysis of the normalized photon flux from the mouse hind limbs.
(§2) To investigate the selectivity of this lung metastasis-priming effect, we tested the effect of TGFβ pre-incubation on the establishment of bone metastases. […]
(§3) For primary tumor analysis, 5×10^5 viable single cells were re-suspended in a 1:1 mixture of PBS and growth-factor-reduced Matrigel (BD Biosciences) and injected orthotopically into both mammary gland number four in a total volume of 100 μL as previously described (Minn et al., 2005). Primary tumor growth rates were analyzed by measuring tumour length (L) and width (W), and calculating tumor volume based on the formula […]. […] Lung metastatic progression was again monitored and quantified using bioluminescence. […]

[2] = tested on: LM2 cells; assay: Lung colonization (priming) assay, tail vein injection of TGFβ-pretreated LM2 cells
Experimental: as §1, with “(D) Bar graphs represent seven-day time point analysis of the normalized photon flux from the mouse hind limbs.” left out
(§4) All animal work was done in accordance with a protocol approved by the MSKCC Institutional Animal Care and Use Committee. […] Seven days after mastectomies, lung metastases were monitored and quantified using non-invasive bioluminescence as previously described (Minn et al., 2005).
as §3

[3] = tested on: CN34.2A cells; assay: Lung colonization (priming) assay, tail vein injection of TGFβ-pretreated CN34.2A cells; conditions: CN34.2A cells pre-treated with TGFβ 6 h; 24 h time point, normalized photon flux
Experimental: as §1, with “(D) Bar graphs represent seven-day time point analysis of the normalized photon flux from the mouse hind limbs.” left out
as §4, §3

[4] = tested on: LM2 cells; assay: Bone metastasis assay, intracardiac injection of TGFβ-pretreated LM2 cells; conditions: LM2 cells pre-treated with TGFβ prior to inoculation into the arterial circulation
Experimental: as §1, §2, §3

Substance: TGFβ: cytokine transforming growth factor beta; TGFβ1 (R&D Systems) used to treat cells for 3 or 6 h
- ability to form bone metastases [1]: did not increase
- early seeding of the bones ([1]; seven-day time point, hind limbs): no discernible effect
- lung colonizing activity (retention of cells in the lungs) ([2]; LM2 cells incubated with TGFβ for 6 h prior to tail vein inoculation, 24 h after inoculation, bioluminescence): significantly increased
- increase of lung seeding activity ([2]; LM2 cells pre-treated with TGFβ 6 h, 24 h time point, normalized photon flux): three
- increase of lung seeding activity [3]: five
- ability to form bone metastases [4]: did not increase

Reference: patent US20110053804A1, “Gene Signatures for the Prognosis of Cancer” (SLOAN-KETTERING INSTITUTE FOR CANCER RESEARCH, priority 2008, published 2011)
